The subject of assay [1] is amyloid precursor protein (APPs) secretion / Aβ production. The conditions noted are these: guinea pigs, repeat administration; cited from earlier work.
Another assay has as its target T1, human 5HT2C receptor (Homo sapiens, UniProt P28335).
T1 construct: expressed in transfected cells; host or cells: HEK293 cells, transient transfection with lipofectamine
T1 sequence (P28335 33-458): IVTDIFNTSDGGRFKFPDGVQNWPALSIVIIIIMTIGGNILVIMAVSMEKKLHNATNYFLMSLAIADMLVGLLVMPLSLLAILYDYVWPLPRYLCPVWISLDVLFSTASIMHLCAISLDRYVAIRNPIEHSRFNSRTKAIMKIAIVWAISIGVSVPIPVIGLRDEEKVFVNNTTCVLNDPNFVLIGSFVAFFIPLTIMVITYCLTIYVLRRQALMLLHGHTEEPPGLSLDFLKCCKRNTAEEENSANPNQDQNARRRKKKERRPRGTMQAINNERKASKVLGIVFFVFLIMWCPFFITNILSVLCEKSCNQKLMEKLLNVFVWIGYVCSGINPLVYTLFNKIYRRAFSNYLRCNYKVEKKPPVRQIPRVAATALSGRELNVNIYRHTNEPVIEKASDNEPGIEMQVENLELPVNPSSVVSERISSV
In words: Intracellular IP3 Accumulation Assay. The assay is classed as cell-based. The conditions noted are these: HEK293 cells transfected with human 5HT2C receptor cDNA; read-out: 5HT2C (IC50) IP Accumulation Assay. As for the experimental part:
Intracellular IP3 Accumulation Assay:
HEK293 cells were transfected in 15 cm sterile dishes with or without (control) 16 ug of human 5HT2C receptor cDNA [for example see, Saltzman, A. G., et al. Biochem. Biophys. Res. Commun. 181, 1469-1478 (1991)] using 25 ul of lipofectamine. Cells were then incubated for 3-4 hours at 37° C./5% CO2 and then transfection media was removed and replaced with 100 ul of DMEM. Cells were then plated onto 100 cm sterile dishes. The next day cells were plated into 96 well PDL microtiter plates at a density of 55 K/0.2 ml. Six hours latter, media was exchanged with [^3H]inositol (0.25 uCi/well) in inositol free DMEM and plates were incubated at 37° C./5% CO2 overnight. The next day, wells were aspirated and 200 ul of DMEM containing test compound, 10 uM pargyline, and 10 mM LiCl was added to appropriate wells. Plates were then incubated at 37° C./5% CO2 for three hours followed aspiration and by addition of fresh ice cold stop solution (1M KOH, 19 mM Na-borate, 3.8 mM EDTA) to each well. Plates were kept on ice for 5-10 min and the wells were neutralized by addition of 200 ul of fresh ice cold neutralization solution (7.5% HCl). Plates were then frozen until further processing is desired. The lysate was then transferred into 1.5 ml Eppendorf tubes and 1 ml of chloroform/methanol (1:2) was added/tube. […]

A word on the pIC50: it is the negative decadic logarithm of the IC50, by convention in mol/L.

Each structure is given as a SMILES string. pIC50: −log10 of the molar value.

As to `C[C@H](N)Cc1cccc(C(F)(F)F)c1` [dexnorfenfluramine (DEXNOR), dexnorfenfluramine], in assay [1], the “amyloid precursor protein (APPs) secretion” value is on record as “stimulated” and the “levels of Aβ production in vivo” value was “reducing”.
`CC1CNCCc2c(Cl)cc(Cl)cc21` (racemic) [Compound 1, (R,S) 6,8-Dichloro-1-methyl-2,3,4,5-tetrahydro-1H-3-benzazepine]: the pIC50 on human 5HT2C receptor was 7.93.
`CC1CNCCc2ccc(Cl)c(F)c21` (racemic) [Compound 3, (R,S) 8-Chloro-9-fluoro-1-methyl-2,3,4,5-tetrahydro-1H-3-benzazepine]: the pIC50 on human 5HT2C receptor was 7.61.

Values taken from patent US7704993B2, “Benzazepine derivatives and methods of prophylaxis or treatment of 5ht2c receptor associated diseases” (Arena Pharmaceuticals, Inc., priority 2003, dated 2010).
